This note sets out measurements from ChEMBL document CHEMBL3400148, “Structure-based discovery of small molecule hepsin and HGFA protease inhibitors: Evaluation of potency and selectivity derived from distinct binding pockets” (Bioorg Med Chem, 2015).

The target in assay [1] is Serine protease hepsin (Homo sapiens, UniProt P05981). The assay can be described thus: Inhibition of hepsin (unknown origin) using Boc-QAR-AMC as substrate after 30 mins prior to substrate addition by fluorescence assay.
Assay [2] deals with T1, Hepatocyte growth factor activator serine protease (Homo sapiens, UniProt Q04756).
T1 sequence (Q04756 whole entry): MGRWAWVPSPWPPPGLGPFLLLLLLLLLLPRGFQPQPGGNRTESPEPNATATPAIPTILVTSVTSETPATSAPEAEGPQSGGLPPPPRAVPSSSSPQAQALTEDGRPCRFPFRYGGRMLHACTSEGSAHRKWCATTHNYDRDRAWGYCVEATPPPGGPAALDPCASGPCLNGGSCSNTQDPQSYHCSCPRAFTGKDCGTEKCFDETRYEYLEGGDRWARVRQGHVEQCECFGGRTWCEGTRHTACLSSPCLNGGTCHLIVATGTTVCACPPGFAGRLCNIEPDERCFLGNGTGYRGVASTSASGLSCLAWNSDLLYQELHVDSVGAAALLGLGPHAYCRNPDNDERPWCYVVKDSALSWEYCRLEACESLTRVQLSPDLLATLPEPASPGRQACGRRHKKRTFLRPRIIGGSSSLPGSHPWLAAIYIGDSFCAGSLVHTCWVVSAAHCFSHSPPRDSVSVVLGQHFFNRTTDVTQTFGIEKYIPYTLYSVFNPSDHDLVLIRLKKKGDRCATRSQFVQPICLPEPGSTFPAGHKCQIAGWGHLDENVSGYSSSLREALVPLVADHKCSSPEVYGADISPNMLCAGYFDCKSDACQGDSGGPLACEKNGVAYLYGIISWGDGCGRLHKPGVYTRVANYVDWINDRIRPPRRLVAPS
The assay can be described thus: Inhibition of recombinant N-terminal His-tagged HGFA (unknown origin) expressed in baculovirus-infected Sf9 cells using Boc-QLR-AMC as substrate incubated for 30 mins prior to substrate addition by fluorescence assay.

For assay [3], the target named is T1, Hepatocyte growth factor activator serine protease. The assay can be described thus: Inhibition of recombinant N-terminal His-tagged HGFA (unknown origin) expressed in baculovirus-infected Sf9 cells incubated for 30 mins prior to cromogenic substrate addition by spectrophotometry.
In assay [4] the target is T2, Suppressor of tumorigenicity 14 protein (Homo sapiens, UniProt Q9Y5Y6).
T2 sequence (Q9Y5Y6 whole entry): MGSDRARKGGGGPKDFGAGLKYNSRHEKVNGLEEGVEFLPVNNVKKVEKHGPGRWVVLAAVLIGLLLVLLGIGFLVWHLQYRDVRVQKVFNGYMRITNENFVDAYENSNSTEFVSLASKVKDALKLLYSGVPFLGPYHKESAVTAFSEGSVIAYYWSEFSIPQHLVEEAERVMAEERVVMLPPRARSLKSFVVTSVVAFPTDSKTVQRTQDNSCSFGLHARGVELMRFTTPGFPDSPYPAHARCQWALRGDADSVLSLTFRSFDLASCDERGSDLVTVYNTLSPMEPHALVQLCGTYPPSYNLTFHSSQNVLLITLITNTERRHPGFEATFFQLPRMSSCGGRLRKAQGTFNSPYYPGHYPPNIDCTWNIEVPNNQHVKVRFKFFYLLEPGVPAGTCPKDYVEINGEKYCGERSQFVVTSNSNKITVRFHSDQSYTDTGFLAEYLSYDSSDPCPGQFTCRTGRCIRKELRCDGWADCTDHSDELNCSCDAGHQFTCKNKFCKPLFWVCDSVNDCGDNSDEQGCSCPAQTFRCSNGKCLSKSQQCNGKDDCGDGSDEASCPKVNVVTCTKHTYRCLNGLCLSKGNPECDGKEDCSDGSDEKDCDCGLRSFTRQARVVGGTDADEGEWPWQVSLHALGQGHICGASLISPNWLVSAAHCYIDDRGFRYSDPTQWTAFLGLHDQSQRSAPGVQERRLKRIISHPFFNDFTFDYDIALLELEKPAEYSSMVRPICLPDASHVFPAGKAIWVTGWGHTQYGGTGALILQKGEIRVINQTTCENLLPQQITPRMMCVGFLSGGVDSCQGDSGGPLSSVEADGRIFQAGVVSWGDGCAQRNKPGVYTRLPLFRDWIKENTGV
Kind of assay: Inhibition of matripase (unknown origin) using Boc-QAR-AMC as substrate incubated for 30 mins prior to substrate addition by fluorescence assay.

Assay [5] concerns the target T1, Hepatocyte growth factor activator serine protease. Kind of assay: Inhibition of HGFA (unknown origin) after 40 mins by Eadie-Hofstee plot analysis.
In assay [6] the target is T3, Hepatocyte growth factor activator serine protease (Homo sapiens) (UniProt Q04756).
T3 sequence (whole entry): T1 sequence (Q04756 whole entry)
The assay can be described thus: Inhibition of recombinant N-terminal His-tagged HGFA (unknown origin) expressed in baculovirus-infected Sf9 cells using Boc-QLR-AMC as substrate up to 20 uM incubated for 30 mins prior to substrate addition by fluorescence assay.

The source made the active and inactive calls. The calls are words filed in the database; no cut-off is given here. Some results are limits rather than exact numbers.

Chain of Serine protease hepsin (P05981 1-162 limits assumed): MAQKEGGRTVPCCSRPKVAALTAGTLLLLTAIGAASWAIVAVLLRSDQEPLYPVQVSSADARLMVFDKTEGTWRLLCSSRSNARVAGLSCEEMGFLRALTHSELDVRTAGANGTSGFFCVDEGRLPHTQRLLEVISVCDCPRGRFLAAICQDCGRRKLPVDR
Chain of Serine protease hepsin (P05981 163-417 limits assumed): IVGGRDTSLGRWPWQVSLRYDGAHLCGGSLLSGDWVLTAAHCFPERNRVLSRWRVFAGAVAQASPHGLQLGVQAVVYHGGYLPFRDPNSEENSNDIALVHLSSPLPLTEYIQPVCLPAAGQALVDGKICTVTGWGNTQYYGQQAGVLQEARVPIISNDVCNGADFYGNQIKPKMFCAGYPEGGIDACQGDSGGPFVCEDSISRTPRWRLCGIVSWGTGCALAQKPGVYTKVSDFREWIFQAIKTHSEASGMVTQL

In the case of `CC(C)c1cc(C(C)C)c(S(=O)(=O)N[C@@H](Cc2cccc(C(=N)N)c2)C(=O)N2CCN(C(=O)C3CCNCC3)CC2)c(C(C)C)c1`, the Ki in assay [1] is 7400 nM; in assay [2] it was 5500 nM.
The molecule `[H]/N=C(/N)c1ccc(NCc2nc3cc(C(=O)N(CCC(=O)O)c4ccccn4)ccc3n2C)cc1` [DABIGATRAN] showed a Ki in assay [1] of 835 nM.
For `N=C(N)Nc1ccc(C(=O)Nc2ccccc2)cc1`, in assay [3], the IC50 was greater than 50000 nM.
Consider `CCc1cc(C(Nc2ccc(C(=N)N)cc2)C(=O)NS(=O)(=O)c2cn(C)cn2)cc2c(C)coc12` (racemic), for which the Ki turned out to be 553 nM in assay [1], 7180 nM in assay [4] and 7100 nM in assay [2].
As for `N=C(N)Nc1ccc(C(=O)Oc2ccc([N+](=O)[O-])cc2Cl)cc1`, the IC50 in assay [3] is 300 nM.
On the same count and under the same terms, next, `Cc1ccc(S(=O)(=O)Nc2ccc(NC(=N)N)cc2)cc1`: greater than 50000 nM.
`N=C(N)c1cccc(C[C@H](NS(=O)(=O)c2ccc3ccccc3c2)C(=O)N2CCN(C(=O)NCc3ccc(Br)cc3)CC2)c1` registered a Ki in assay [4] of 4600 nM.
As to `N=C(N)c1ccc2cc(OC(=O)c3ccc(N=C(N)N)cc3)ccc2c1` [NAFAMOSTAT], the IC50 in assay [3] came to 150 nM.
As for `N=C(N)Nc1ccc(C(=O)Oc2ccc([N+](=O)[O-])cc2)cc1`, the IC50 in assay [3] stood at 820 nM.
`CCCCCCNC(=O)N1CCN(C(=O)[C@H](Cc2cccc(C(=N)N)c2)NS(=O)(=O)c2ccc3ccccc3c2)CC1` showed a Ki in assay [1] of 1200 nM.
Regarding `N=C(N)Nc1ccc(C(=O)Oc2ccc(C(N)=O)cc2)cc1`, the IC50 in assay [3] stood at 6800 nM.
On the same count and under the same terms, next, `COC(=O)c1ccc2cc(OC(=O)c3ccc(NC(=N)N)cc3)ccc2c1`: 600 nM.
For `O=C(NC[C@H]1CN(c2ccc(N3CCOCC3=O)cc2)C(=O)O1)c1ccc(Cl)s1` [RIVAROXABAN], the Ki in assay [4] was 3350 nM.
Take `CN(C)C(=O)COC(=O)Cc1ccc(OC(=O)c2ccc(NC(=N)N)cc2)cc1` [CAMOSTAT]: in assay [3], the IC50 was 32000 nM.
Molecule `CCc1cc([C@@H](Nc2ccc(C(=N)N)cc2)C(=O)NS(=O)(=O)c2cn(C)cn2)cc2c(C)coc12` displayed a Ki in assay [5] of 590 nM.
For the molecule `Cc1ccc(S(=O)(=O)N[C@@H](Cc2cccc(C(=N)N)c2)C(=O)N2CCN(C(=O)NCCc3ccccc3)CC2)cc1`, the figures for the Ki in assay [1], in assay [4] and in assay [2] were 670 nM, 2500 nM and greater than 50000 nM, respectively.
As to `Cc1ccc(S(=O)(=O)N[C@@H](Cc2cccc(C(=N)N)c2)C(=O)N2CCC(c3ccccc3)CC2)cc1`, the inhibitory constant (Ki) in assay [1] was determined as 4700 nM; in assay [4], 480 nM.
Turning to `N=C(N)Nc1ccc(C(=O)Oc2cccc([N+](=O)[O-])c2)cc1`, the IC50 in assay [3] came out at 3000 nM.
In the case of `N=C(N)c1cccc(C[C@H](NS(=O)(=O)c2ccc3ccccc3c2)C(=O)N2CCC[C@@H](NC(=O)OCc3ccccc3)C2)c1`, the Ki is 2600 nM in assay [1] and 6700 nM in assay [4].
In assay [4], `Cc1ccc(S(=O)(=O)N[C@@H](Cc2cccc(C(=N)N)c2)C(=O)N2CCC[C@H](NC(=O)OCc3ccccc3)C2)cc1` gave a Ki of 1200 nM.
As for `COC(=O)c1ccc2cc(NS(=O)(=O)c3ccc(NC(=N)N)cc3)ccc2c1`, in assay [3], the IC50 was greater than 50000 nM.
Still for that read-out and setting: next, `COC(=O)c1ccc(OC(=O)c2ccc(NC(=N)N)cc2)cc1`: 1100 nM.
With `N=C(N)c1cccc(C[C@H](NS(=O)(=O)c2ccc3ccccc3c2)C(=O)N2CCN(C(=O)c3csc4ccccc34)CC2)c1`, the inhibition constant (Ki) in assay [1] was determined as 3500 nM; in assay [4] it was 1500 nM.
On to `CC(C)c1cc(C(C)C)c(S(=O)(=O)N[C@@H](Cc2cccc(C(=N)N)c2)C(=O)N2CCN(C(=O)C3CCN(C(=N)N)CC3)CC2)c(C(C)C)c1`, for which the Ki in assay [1] was 1580 nM; in assay [4] it was 4.3 nM; in assay [2], 17000 nM.
As to `N=C(N)Nc1ccc(NC(=O)c2ccccc2)cc1`, the IC50 in assay [3] is greater than 50000 nM.
For the molecule `Cc1ccc(S(=O)(=O)N[C@@H](CCCCN)C(=O)CCl)cc1`, the inhibition result in assay [6] was “inactive”.
Turning to `N=C(N)c1cccc(C[C@H](NS(=O)(=O)c2ccc3ccccc3c2)C(=O)N2CCN(C(=O)NCc3ccccc3)CC2)c1`, the Ki in assay [4] came to 2600 nM.

As usually defined, the Ki is the equilibrium dissociation constant of an inhibitor or competing ligand from its target. What is called IC50 is the midpoint of a concentration-inhibition curve.
